Experimental findings from patent US20240400559A1, “SOLID STATE EMITTERS BASED ON PYRIDINIUM SCAFFOLDS” (Council of Scientific and Industrial Research, priority 2021, published 2024) are described below.

SMILES strings stand for the structures.

A short description of this data set: Solution state photophysical studies (absorption, emission, lifetime) in DMSO. The class given is physicochemical. Conditions: in DMSO at RT; for λmax (abs.) / λmax (em.): 10 μM; for λmax (em.): under UV light (λexc=365 nm). The method, then:
For solution state photophysical studies (absorption, emission and lifetime) stock for all compounds (1 mM concentration) were prepared in DMSO solvent. For the measurement, the required volume was added from the stock solution in 1 mL solution to make it final concentration as 10 μM. For aggregation induced emission (AIE) measurement, different ratio of DCM-Hexane solvent mixture (0-99%) was prepared by adding required volume of DCM and Hexane, subsequently measurements were performed by maintaining 10 μM dye concentration in each 1 mL solution.
The AIE images were taken in 5 ml vials which were placed on a handled UV (excitation wavelength 365 nm) instrument. For the solid-state absorption and emission measurements, powder samples were prepared by dissolving compound and BaSO4 in DCM and then evaporated to dryness. Solution Spectra were measured in HORIBA Jobin Yvon Fluorolog using 1 cm path length quartz cuvette. To make the powder more homogenous, mixtures were grinded effectively for few minutes.

As for `O=S(=O)([O-])C(F)(F)F.c1ccc(-c2cccc3c4ccccc4cc(-c4ccccc4)[n+]23)cc1` [2a, 4,6-diphenylpyrido[2,1-a]isoquinolin-5-ium trifluoromethanesulfonate], the Lifetime stood at 5.84 ns, the “Rel. QY” value is on record as 0.015, the Stokes shift is 116 nm and the “λmax (abs.)” value came out at 392 nm. Besides, the “λmax (em.)” value is 508 nm.
Consider `COc1ccc(-c2cccc3c4ccccc4cc(-c4cccc5ccccc45)[n+]23)cc1.O=S(=O)([O-])C(F)(F)F` [2aa, 4-(4-methoxyphenyl)-6-(naphthalen-1-yl)pyrido[2,1-a]isoquinolin-5-ium trifluoromethanesulfonate], for which the Lifetime is given as 4.09 ns, the “Rel. QY” value stood at 0.062, the Stokes shift worked out at 143 nm and the “λmax (abs.)” value came out at 397 nm. The “λmax (em.)” value stood at 540 nm.
The matching figures for `COc1ccc(-c2cccc3c4ccccc4cc(-c4ccccc4)[n+]23)cc1.O=S(=O)([O-])C(F)(F)F` [2f, 4-(4-methoxyphenyl)-6-phenylpyrido[2,1-a]isoquinolin-5-ium trifluoromethane sulfonate]: 5.32 ns, 0.018, 136 nm, 404 nm and 540 nm.
For `O=S(=O)([O-])C(F)(F)F.c1ccc(-c2cc3ccccc3c3cccc(-c4cc5ccccc5c5ccccc45)[n+]23)cc1` [2j, 4-(phenanthren-9-yl)-6-phenylpyrido[2,1-a]isoquinolin-5-ium trifluoromethane sulfonate] the same measures were 5.19 ns, 0.220, 147 nm, 397 nm and 544 nm.
For `COc1ccc(-c2cccc3c4cc(C)ccc4cc(-c4ccccc4)[n+]23)cc1.O=S(=O)([O-])C(F)(F)F` [2m, 4-(4-methoxyphenyl)-10-methyl-6-phenylpyrido[2,1-a]isoquinolin-5-ium trifluoro methanesulfonate], the Lifetime is 3.6 ns, the “Rel. QY” value worked out at 0.020, the Stokes shift came to 131 nm and the “λmax (abs.)” value came out at 409 nm. The “λmax (em.)” value came to 540 nm.
For `COc1ccc(-c2cccc3c4cc(-c5ccccc5)ccc4cc(-c4ccccc4)[n+]23)cc1.O=S(=O)([O-])C(F)(F)F` [2o, 4-(4-methoxyphenyl)-6,10-diphenylpyrido[2,1-a]isoquinolin-5-ium trifluoro methanesulfonate] the same measures were 3.72 ns, 0.036, 129 nm, 417 nm and 546 nm.
Turning to `COc1ccc(-c2cccc3c4cc(-c5cccc6ccccc56)ccc4cc(-c4ccccc4)[n+]23)cc1.O=S(=O)([O-])C(F)(F)F` [2p, 4-(4-methoxyphenyl)-10-(naphthalen-1-yl)-6-phenylpyrido[2,1-a]isoquinolin-5-ium trifluoromethanesulfonate], the Lifetime was 3.38 ns, the “Rel. QY” value stood at 0.032, the Stokes shift turned out to be 140 nm and the “λmax (abs.)” value is 412 nm. The “λmax (em.)” value came to 552 nm.
Take `COc1ccc(-c2cccc3c4ccc(C)cc4cc(-c4ccccc4)[n+]23)cc1.O=S(=O)([O-])C(F)(F)F` [2r, 4-(4-methoxyphenyl)-9-methyl-6-phenylpyrido[2,1-a]isoquinolin-5-ium trifluoro methanesulfonate]: the Lifetime was determined as 5.93 ns, the “Rel. QY” value came out at 0.017, the Stokes shift was found to be 133 nm and the “λmax (abs.)” value was 405 nm. Also, the “λmax (em.)” value was found to be 538 nm.
On to `COc1ccc(-c2cccc3c4cc(C)cc(C)c4cc(-c4ccccc4)[n+]23)cc1.O=S(=O)([O-])C(F)(F)F` [2t, 4-(4-methoxyphenyl)-8.10-dimethyl-6-phenylpyrido[2,1-a]isoquinolin-5-ium trifluoro methanesulfonate], for which the Lifetime is 4.49 ns, the “Rel. QY” value is on record as 0.024, the Stokes shift worked out at 132 nm and the “λmax (abs.)” value is reported as 410 nm. In addition, the “λmax (em.)” value amounted to 542 nm.
The matching figures for `COc1ccc(-c2cccc3c4cc(OC)cc(OC)c4cc(-c4ccccc4)[n+]23)cc1.O=S(=O)([O-])C(F)(F)F` [2u, 8,10-dimethoxy-4-(4-methoxyphenyl)-6-phenylpyrido[2,1-a]isoquinolin-5-ium trifluoromethanesulfonate]: 4.2 ns, 0.125, 172 nm, 430 nm and 602 nm.
Turning to `COc1ccc(-c2cccc3c4ccccc4cc(-c4cc(OC)cc(OC)c4)[n+]23)cc1.O=S(=O)([O-])C(F)(F)F` [2y, 6-(3,5-dimethoxyphenyl)-4-(4-methoxyphenyl)pyrido[2,1-a]isoquinolin-5-ium trifluoromethanesulfonate], the Lifetime is 5.72 ns, the “Rel. QY” value came to 0.006, the Stokes shift was found to be 139 nm and the “λmax (abs.)” value is recorded as 401 nm. Moreover, the “λmax (em.)” value came to 540 nm.
